Like-named read-outs stand apart in the source and are kept apart here.
Key:
Format in all cases: in vivo
[1] = system: Amaranthus retroflexus (AMARE); assay: Post-emergence herbicidal action against AMARE; settings: 320 g/ha, visual rating about 3 weeks after treatment
Outline: (§1)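 Rates were 320 g/ha or below, applied as aqueous WP/EC spray with 0.5% additive (600 l/ha) onto one-leaf-stage plants. About 3 weeks later in the greenhouse, damage was scored visually against untreated plants on a 0–100% scale, where 100% means plants died.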

Zea mays (ZEAMX) [2] = settings: pre-emergence, 80 g/ha, crop plant compatibility, in comparison to untreated controls
Outline: (§2)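 Crop injury rated visually in percent against untreated plants roughly 3 weeks after treatment (0% no effect, 100% plants dead). Compounds, as WP or EC with 0.5% additive in 600 l/ha water, were applied to the covering soil right after sowing; greenhouse growth. Suffixes a, b, c denote different dosages.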

Oryza sativa (ORYSA) [3] = settings: pre-emergence, crop plant compatibility, in comparison to untreated controls
Outline: as §2

Glycine max (GLXMA) = settings: pre-emergence, 80 g/ha, crop plant compatibility, in comparison to untreated controls
Outline: as §2

Zea mays (ZEAMX) [4] = settings: crop plant compatibility, effect vs untreated controls
Outline: (§3)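 Visual rating (% effect vs. untreated plants; 100% = plant death) made about 3 weeks after treatment. Plants had been sprayed at one-leaf stage, 2–3 weeks post-sowing, with aqueous WP/EC preparations containing 0.5% additive, 600 l/ha water volume; a, b, c mark dose levels.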

Oryza sativa (ORYSA) [5] = settings: crop plant compatibility, effect in comparison to untreated controls
Outline: as §3

[6] = system: Triticum aestivum (TRZAS); settings: crop plant compatibility, 80 g/ha, effect vs untreated controls
Outline: as §3

[7] = system: Amaranthus retroflexus (AMARE); assay: Pre-emergence herbicidal action against AMARE; settings: 320 g/ha, visual scoring after about 3 weeks vs untreated controls
Outline: (§4)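 Seeds sown in pots and covered with soil; WP or EC formulations sprayed onto the soil surface at 600 l/ha water with 0.5% additive, at 320 g/ha or lower. Greenhouse growth for about 3 weeks, then visual scoring as % effect against untreated controls (100% = plants dead).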

[8] = system: Pharbitis purpurea (PHBPU); assay: Post-emergence herbicidal action against PHBPU; settings: dosage 320 g/ha
Outline: as §1

[9] = system: Digitaria sanguinalis (DIGSA); assay: Post-emergence herbicidal action against DIGSA; settings: 320 g/ha, visual rating about 3 weeks after treatment
Outline: as §1

[10] = system: Alopecurus myosuroides (ALOMY); assay: Pre-emergence herbicidal action against ALOMY; settings: 320 g/ha; scored visually after about 3 weeks; 100% = plants have died
Outline: as §4

[11] = system: Polygonum convolvulus (POLCO); assay: Post-emergence herbicidal action against POLCO
Outline: as §1

Viola tricolor (VIOTR) [12] = assay: Pre-emergence herbicidal action against VIOTR
Outline: as §4

Lolium rigidum (LOLRI) [13] = assay: Post-emergence herbicidal action against LOLRI
Outline: as §1

Lolium rigidum (LOLRI) [14] = assay: Pre-emergence herbicidal action against LOLRI
Outline: as §4

Viola tricolor (VIOTR) [15] = assay: Post-emergence herbicidal action against VIOTR
Outline: as §1

[16] = system: Polygonum convolvulus (POLCO); assay: Pre-emergence herbicidal action against POLCO; settings: dosage 320 g/ha
Outline: as §4

[17] = system: Digitaria sanguinalis (DIGSA); assay: Pre-emergence herbicidal action against DIGSA
Outline: as §4

[18] = system: Alopecurus myosuroides (ALOMY); assay: Post-emergence herbicidal action against ALOMY; settings: 320 g/ha, visual rating about 3 weeks after treatment vs untreated controls (100% = plants have died, 0% = like control plants)
Outline: as §1

[19] = system: Echinochloa crus-galli (ECHCG); assay: Post-emergence herbicidal action against ECHCG
Outline: as §1

[20] = system: Verconica persica (VERPE); assay: Post-emergence herbicidal action against VERPE
Outline: as §1

Setaria viridis (SETVI) [21] = assay: Post-emergence herbicidal action against SETVI
Outline: as §1

Avena fatua (AVEFA) [22] = assay: Post-emergence herbicidal action against AVEFA; settings: visual rating about 3 weeks after treatment
Outline: as §1

[23] = system: Verconica persica (VERPE); assay: Pre-emergence herbicidal action against VERPE; settings: dosage 320 g/ha
Outline: as §4

[24] = system: Matricaria inodora (MATIN); assay: Pre-emergence herbicidal action against MATIN; settings: dosage 320 g/ha
Outline: as §4

Setaria viridis (SETVI) [25] = assay: Pre-emergence herbicidal action against SETVI
Outline: as §4

Avena fatua (AVEFA) [26] = assay: Pre-emergence herbicidal action against AVEFA; settings: 320 g/ha, visual scoring after about 3 weeks vs untreated controls
Outline: as §4

[27] = system: Matricaria inodora (MATIN); assay: Post-emergence herbicidal action against MATIN; settings: dosage 320 g/ha
Outline: as §1

[28] = system: Echinochloa crus-galli (ECHCG); assay: Pre-emergence herbicidal action against ECHCG
Outline: as §4

Row | Pre-emergence action against ZEAMX in % (Zea mays (ZEAMX) [2]) | Pre-emergence action against GLXMA in % (Glycine max (GLXMA)) | Post-emergence action against ZEAMX in % (Zea mays (ZEAMX) [4]; 80 g/ha) | Post-emergence action against ORYSA in % (Oryza sativa (ORYSA) [5]; 80 g/ha) | Post-emergence action against ORYSA in % (Oryza sativa (ORYSA) [5]; 320 g/ha) | SMILES | Post-emergence action against AMARE in % [1] | Pre-emergence action against AMARE in % [7] | Post-emergence action against PHBPU in % [8] | Post-emergence action against DIGSA in % [9] | Pre-emergence action against ALOMY [10] | Post-emergence action against POLCO in % ([11]; dosage 320 g/ha) | Pre-emergence action against VIOTR in % (Viola tricolor (VIOTR) [12]; 320 g/ha, Viola tricolor) | Post-emergence action against LOLRI in % (Lolium rigidum (LOLRI) [13]; dosage 320 g/ha) | Pre-emergence action against LOLRI in % (Lolium rigidum (LOLRI) [14]; dosage 320 g/ha) | Post-emergence action against VIOTR in % (Viola tricolor (VIOTR) [15]; 80 g/ha) | Post-emergence action against VIOTR in % (Viola tricolor (VIOTR) [15]; 320 g/ha) | Pre-emergence action against DIGSA in % ([17]; dosage 320 g/ha) | Post-emergence action against ALOMY in % [18] | also measured
1 | 20% | 0% | 0% | 0% | 0% | C[C@H](NC(=O)COc1nn(-c2ccnc(F)c2)c(-c2ccc(F)nc2)c1Br)C(=O)O [III-25] | 80% | 80% | – | – | – | – | – | – | – | – | – | – | – | Pre-emergence action against ORYSA in % (Oryza sativa (ORYSA) [3]; 80 g/ha): 0%; Pre-emergence action against ORYSA in % (Oryza sativa (ORYSA) [3]; 320 g/ha): 0%; Post-emergence action against ZEAMX in % (Zea mays (ZEAMX) [4]; 320 g/ha): 0%; Post-emergence action against TRZAS in % [6]: 0%
2 | 0% | 0% | 20% | – | 0% | COC(=O)CCOC(=O)[C@@H](C)Oc1nn(-c2ccccn2)c(-c2ccc(Cl)nc2)c1Br [Example I-244] | – | 90% | 80% | 80% | 90% | 80% | 90% | 80% | 100% | 80% | 80% | 90% | 80% | Post-emergence action against POLCO in % ([11]; dosage 80 g/ha): 80%; Pre-emergence action against POLCO in % [16]: 80%
3 | – | 20% | – | 20% | – | COC(=O)[C@@H](C)Oc1nn(-c2nc(F)ccc2F)c(-c2ccc(F)nc2)c1C1CC1 [Example I-298] | 80% | 100% | 90% | 80% | 90% | 80% | 100% | 90% | 100% | 80% | 90% | 100% | 90% | Post-emergence action against ECHCG in % ([19]; dosage 80 g/ha): 80%; Post-emergence action against ECHCG in % ([19]; dosage 320 g/ha): 90%; Post-emergence action against VERPE in % ([20]; 320 g/ha, VERPE): 80%; Post-emergence action against VERPE in % ([20]; dosage 80 g/ha): 80%; Post-emergence action against SETVI in % (Setaria viridis (SETVI) [21]; dosage 80 g/ha): 90%; Post-emergence action against SETVI in % (Setaria viridis (SETVI) [21]; dosage 320 g/ha): 90%; Pre-emergence action against VIOTR in % (Viola tricolor (VIOTR) [12]; dosage 80 g/ha): 100%; Post-emergence action against AVEFA in % (Avena fatua (AVEFA) [22]; 80 g/ha): 80%; Post-emergence action against AVEFA in % (Avena fatua (AVEFA) [22]; 320 g/ha): 90%; Post-emergence action against LOLRI in % (Lolium rigidum (LOLRI) [13]; dosage 80 g/ha): 90%; Pre-emergence action against VERPE in % [23]: 100%; Pre-emergence action against MATIN in % [24]: 90%; Pre-emergence action against LOLRI in % (Lolium rigidum (LOLRI) [14]; dosage 80 g/ha): 90%; Pre-emergence action against DIGSA in % ([17]; 80 g/ha, visual scoring after about 3 weeks vs untreated controls): 100%; Pre-emergence action against SETVI in % (Setaria viridis (SETVI) [25]; dosage 80 g/ha): 100%; Pre-emergence action against SETVI in % (Setaria viridis (SETVI) [25]; dosage 320 g/ha): 100%; Pre-emergence action against AVEFA in % (Avena fatua (AVEFA) [26]): 90%; Post-emergence action against MATIN in % [27]: 80%; Pre-emergence action against ECHCG in % ([28]; dosage 80 g/ha): 90%; Pre-emergence action against ECHCG in % ([28]; dosage 320 g/ha): 100%
